The supplement of paper PMC10307832

Legend:
Test in all cases: relative viability (nuclei count vs DMSO), 5 days (fraction); higher = more cells survive
NCI-H1793 = tested on: NCI-H1793
Summary of the method: (§1)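 After 5 days of treatment, lung cancer cells in 1536-well plates were fixed and stained in a single step (final 0.05% Triton X-100, 1% formaldehyde, 1 ug/ml Hoechst) and their nuclei counted on 4× images. Treatment had been applied by pin tool the day after seeding as one drug alone or as a fixed anchor-drug dose with five library-drug doses (not always all listed) in √10 steps. Relative viability is the nuclei count of treated wells divided by that of vehicle wells, and values are medians of duplicate plates.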

BEN = tested on: BEN
Summary of the method: as §1

NCI-H1792 = tested on: NCI-H1792
Summary of the method: as §1

NCI-H727 = tested on: NCI-H727
Summary of the method: as §1

HCC-827 = tested on: HCC-827
Summary of the method: as §1

LCLC-97TM1 = tested on: LCLC-97TM1
Summary of the method: as §1

NCI-H1650 = tested on: NCI-H1650
Summary of the method: as §1

NCI-H322M = tested on: NCI-H322M
Summary of the method: as §1

RERF-LC-KJ = tested on: RERF-LC-KJ
Summary of the method: as §1

NCI-H2228 = tested on: NCI-H2228
Summary of the method: as §1

LCLC-103H = tested on: LCLC-103H
Summary of the method: as §1

NCI-H2405 = tested on: NCI-H2405
Summary of the method: as §1

NCI-H1944 = tested on: NCI-H1944
Summary of the method: as §1

NCI-H647 = tested on: NCI-H647
Summary of the method: as §1

LXF-289 = tested on: LXF-289
Summary of the method: as §1

SK-LU-1 = tested on: SK-LU-1
Summary of the method: as §1

NCI-H1395 = tested on: NCI-H1395
Summary of the method: as §1

NCI-H3122 = tested on: NCI-H3122
Summary of the method: as §1

201T = tested on: 201T
Summary of the method: as §1

CAL-12T = tested on: CAL-12T
Summary of the method: as §1

NCI-H1437 = tested on: NCI-H1437
Summary of the method: as §1

NCI-H2087 = tested on: NCI-H2087
Summary of the method: as §1

In the case of `O=c1cc(N2CCOCC2)oc2c(-c3cccc4c3sc3ccccc34)cccc12` + COc1cccc2cc(-c3nc([C@H]4CC[C@H](C(=O)O)CC4)n4ncnc(N)c34)[nH]c12 [OSI-027] (partner 0.5 µM), the relative viability (NCI-H1793; first compound 0.01 µM) was 0.33, the relative viability (NCI-H1793; first compound 0.1 µM) was 0.287 and the relative viability (NCI-H1793; first compound 0.3162 µM) was 0.251. The relative viability (NCI-H1793; first compound 1 µM) was 0.247, the relative viability (BEN; first compound 0.01 µM) was 0.304 and the relative viability (BEN; first compound 0.03162 µM) was 0.309. The relative viability (BEN; first compound 0.1 µM) was 0.302, the relative viability (BEN; first compound 0.3162 µM) was 0.323 and the relative viability (BEN; first compound 1 µM) was 0.311. The relative viability (NCI-H1792; first compound 0.01 µM) was 0.717, the relative viability (NCI-H1792; first compound 0.03162 µM) was 0.716 and the relative viability (NCI-H1792; first compound 0.1 µM) was 0.653. The relative viability (NCI-H1792; first compound 0.3162 µM) was 0.752, the relative viability (NCI-H1792; first compound 1 µM) was 0.779 and the relative viability (NCI-H727; first compound 0.01 µM) was 0.498. It also gave a relative viability (NCI-H727; first compound 0.03162 µM) of 0.567, a relative viability (NCI-H727; first compound 0.1 µM) of 0.473 and a relative viability (NCI-H727; first compound 0.3162 µM) of 0.592. It also gave a relative viability (NCI-H727; first compound 1 µM) of 0.659, a relative viability (HCC-827; first compound 0.01 µM) of 0.853 and a relative viability (HCC-827; first compound 0.03162 µM) of 0.813. The relative viability (HCC-827; first compound 0.1 µM) was 0.744, the relative viability (HCC-827; first compound 0.3162 µM) was 0.772 and the relative viability (HCC-827; first compound 1 µM) was 0.791. For the same compound, the relative viability (LCLC-97TM1; first compound 0.01 µM) was 0.583, the relative viability (LCLC-97TM1; first compound 0.03162 µM) was 0.684 and the relative viability (LCLC-97TM1; first compound 0.1 µM) was 0.491. It also gave a relative viability (LCLC-97TM1; first compound 0.3162 µM) of 0.612, a relative viability (LCLC-97TM1; first compound 1 µM) of 0.555 and a relative viability (NCI-H1650; first compound 0.01 µM) of 0.519. For the same compound, the relative viability (NCI-H1650; first compound 0.03162 µM) was 0.631, the relative viability (NCI-H1650; first compound 0.1 µM) was 0.535 and the relative viability (NCI-H1650; first compound 0.3162 µM) was 0.769. It also gave a relative viability (NCI-H1650; first compound 1 µM) of 0.592, a relative viability (NCI-H322M; first compound 0.01 µM) of 0.599 and a relative viability (NCI-H322M; first compound 0.03162 µM) of 0.646. For the same compound, the relative viability (NCI-H322M; first compound 0.1 µM) was 0.282, the relative viability (NCI-H322M; first compound 0.3162 µM) was 0.579 and the relative viability (NCI-H322M; first compound 1 µM) was 0.43. For the same compound, the relative viability (RERF-LC-KJ; first compound 0.01 µM) was 0.617, the relative viability (RERF-LC-KJ; first compound 0.03162 µM) was 0.635 and the relative viability (RERF-LC-KJ; first compound 0.1 µM) was 0.6. The relative viability (RERF-LC-KJ; first compound 0.3162 µM) was 0.615, the relative viability (RERF-LC-KJ; first compound 1 µM) was 0.555 and the relative viability (NCI-H2228; first compound 0.01 µM) was 0.677. It also gave a relative viability (NCI-H2228; first compound 0.03162 µM) of 0.775, a relative viability (NCI-H2228; first compound 0.1 µM) of 0.558 and a relative viability (NCI-H2228; first compound 0.3162 µM) of 0.605. For the same compound, the relative viability (NCI-H2228; first compound 1 µM) was 0.548, the relative viability (LCLC-103H; first compound 0.01 µM) was 0.446 and the relative viability (LCLC-103H; first compound 0.03162 µM) was 0.462. For the same compound, the relative viability (LCLC-103H; first compound 0.1 µM) was 0.513, the relative viability (LCLC-103H; first compound 0.3162 µM) was 0.474 and the relative viability (LCLC-103H; first compound 1 µM) was 0.419. The relative viability (NCI-H2405; first compound 0.01 µM) was 0.717, the relative viability (NCI-H2405; first compound 0.03162 µM) was 0.615 and the relative viability (NCI-H2405; first compound 0.1 µM) was 0.564. It also gave a relative viability (NCI-H2405; first compound 0.3162 µM) of 0.663, a relative viability (NCI-H2405; first compound 1 µM) of 0.685 and a relative viability (NCI-H1944; first compound 0.01 µM) of 0.443. For the same compound, the relative viability (NCI-H1944; first compound 0.03162 µM) was 0.436, the relative viability (NCI-H1944; first compound 0.1 µM) was 0.429 and the relative viability (NCI-H1944; first compound 0.3162 µM) was 0.44. For the same compound, the relative viability (NCI-H1944; first compound 1 µM) was 0.391, the relative viability (NCI-H647; first compound 0.01 µM) was 0.689 and the relative viability (NCI-H647; first compound 0.03162 µM) was 0.739. It also gave a relative viability (NCI-H647; first compound 0.1 µM) of 0.302, a relative viability (NCI-H647; first compound 0.3162 µM) of 0.747 and a relative viability (NCI-H647; first compound 1 µM) of 0.745. It also gave a relative viability (LXF-289; first compound 0.01 µM) of 0.807, a relative viability (LXF-289; first compound 0.03162 µM) of 0.778 and a relative viability (LXF-289; first compound 0.1 µM) of 0.755. The relative viability (LXF-289; first compound 0.3162 µM) was 0.825, the relative viability (LXF-289; first compound 1 µM) was 0.81 and the relative viability (SK-LU-1; first compound 0.01 µM) was 0.35. It also gave a relative viability (SK-LU-1; first compound 0.03162 µM) of 0.393, a relative viability (SK-LU-1; first compound 0.1 µM) of 0.355 and a relative viability (SK-LU-1; first compound 0.3162 µM) of 0.398. The relative viability (SK-LU-1; first compound 1 µM) was 0.415, the relative viability (NCI-H1395; first compound 0.01 µM) was 0.574 and the relative viability (NCI-H1395; first compound 0.03162 µM) was 0.695. For the same compound, the relative viability (NCI-H1395; first compound 0.1 µM) was 0.488, the relative viability (NCI-H1395; first compound 0.3162 µM) was 0.68 and the relative viability (NCI-H1395; first compound 1 µM) was 0.707. The relative viability (NCI-H3122; first compound 0.01 µM) was 1.02, the relative viability (NCI-H3122; first compound 0.03162 µM) was 0.911 and the relative viability (NCI-H3122; first compound 0.1 µM) was 0.907. It also gave a relative viability (NCI-H3122; first compound 0.3162 µM) of 0.987, a relative viability (NCI-H3122; first compound 1 µM) of 0.934 and a relative viability (201T; first compound 0.01 µM) of 0.811. It also gave a relative viability (201T; first compound 0.03162 µM) of 0.832, a relative viability (201T; first compound 0.1 µM) of 0.715 and a relative viability (201T; first compound 0.3162 µM) of 0.721. The relative viability (201T; first compound 1 µM) was 0.645, the relative viability (CAL-12T; first compound 0.01 µM) was 0.69 and the relative viability (CAL-12T; first compound 0.03162 µM) was 0.71. The relative viability (CAL-12T; first compound 0.1 µM) was 0.599, the relative viability (CAL-12T; first compound 0.3162 µM) was 0.728 and the relative viability (CAL-12T; first compound 1 µM) was 0.707. For the same compound, the relative viability (NCI-H1437; first compound 0.01 µM) was 0.907, the relative viability (NCI-H1437; first compound 0.03162 µM) was 0.848 and the relative viability (NCI-H1437; first compound 0.1 µM) was 0.913. For the same compound, the relative viability (NCI-H1437; first compound 0.3162 µM) was 0.944, the relative viability (NCI-H1437; first compound 1 µM) was 0.935 and the relative viability (NCI-H2087; first compound 0.01 µM) was 0.569. It also gave a relative viability (NCI-H2087; first compound 0.03162 µM) of 0.637, a relative viability (NCI-H2087; first compound 0.1 µM) of 0.544 and a relative viability (NCI-H2087; first compound 0.3162 µM) of 0.416. It also gave a relative viability (NCI-H2087; first compound 1 µM) of 0.599.
